According to patent US9999616B2 (ZENITH EPIGENETICS LTD., priority 2013, dated 2018):

What was measured:
[1] = test system: Human AML MV-4-11 cells; experiment: Inhibition of cell proliferation in MV4-11 cells (CellTiter Aqueous One); type: cell-based; conditions: for IC50: MV4-11, 72 h; for Cell Proliferation activity: 72 h
Procedure: MV4-11 cells (CRL-9591) were plated at a density of 5×10^4 cells per well in 96 well flat bottom plates and treated with increasing concentrations of test compound or DMSO (0.1%) in IMDM media containing 10% FBS and penicillin/streptomycin. Triplicate wells were used for each concentration and a well containing only media was used as a control. Plates were incubated at 37° C., 5% CO2 for 72 h before adding 20 µL of the CellTiter Aqueous One Solution (Promega) to each well and incubated at 37° C., 5% CO2 for an additional 3-4 h. The absorbance was read at 490 nm in a spectrophotometer and the percentage of cell titer relative to DMSO-treated cells was calculated after correcting for background by subtracting the blank well's signal. IC50 values were calculated using the GraphPad Prism software.

[2] = biological target: Brd4 bromodomain 1 (BRD4(1)) (Homo sapiens, UniProt O60885); experiment: Inhibition of tetra-acetylated histone H4 binding to Brd4 bromodomain 1, measured by FRET (HTRF); design: made in house; host or cells: E. coli BL21(DE3); conditions: 2 h at room temperature
Procedure: Proteins were cloned and overexpressed with a N-terminal 6×His tag, then purified by nickel affinity followed by size exclusion chromatography. Briefly, E. coli BL21(DE3) cells were transformed with a recombinant expression vector encoding N-terminally Nickel affinity tagged bromodomains from Brd2, Brd3, Brd4. Cell cultures were incubated at 37° C. with shaking to the appropriate density and induced overnight with IPTG. The supernatant of lysed cells was loaded onto Ni-IDA column for purification. Eluted protein was pooled, concentrated and further purified by size exclusion chromatography. Fractions representing monomeric protein were pooled, concentrated, aliquoted, and frozen at −80° C. for use in subsequent experiments.
Binding of tetra-acetylated histone H4 and BET bromodomains was confirmed by a Homogenous Time Resolved Fluorescence Resonance Energy Transfer (HTRF®) method. N-terminally His-tagged bromodomains (200 nM) and biotinylated tetra-acetylated histone H4 peptide (25-50 nM, Millipore) were incubated in the presence of Europium Cryptate-labeled streptavidin (Cisbio Cat. #610SAKLB) and XL665-labeled monoclonal anti-His antibody (Cisbio Cat. #61HISXLB) in a white 96 well microtiter plate (Greiner). For inhibition assays, serially diluted test compound was added to these reactions in a 0.2% final concentration of DMSO. Duplicate wells were used for each concentration tested. Final buffer concentrations were 30 mM HEPES pH 7.4, 30 mM NaCl, 0.3 mM CHAPS, 20 mM phosphate pH 7.0, 320 mM KF, 0.08% BSA. After a 2 h incubation at room temperature, fluorescence was measured at 665 and 620 nm with a SynergyH4 plate reader (Biotek). The binding inhibitory activity was shown by a decrease in 665 nm relative to 620 nm fluorescence. IC50 values were determined from a dose response curve.

[3] = test system: c-myc in Human AML MV4-11 cells; experiment: Inhibition of cMYC expression (mRNA, real-time PCR) in MV4-11 cells; type: cell-based; conditions: 3 h treatment, cMYC mRNA by real-time PCR
Procedure: MV4-11 cells (CRL-9591) were plated at a density of 2.5×10^4 cells per well in 96 well U-bottom plates and treated with increasing concentrations of test compound or DMSO (0.1%) in IMDM media containing 10% FBS and penicillin/streptomycin, and incubated for 3 h at 37′C. Triplicate wells were used for each concentration. Cells were pelleted by centrifugation and harvested using the mRNA Catcher PLUS kit according to manufacturer's instructions. The eluted mRNA isolated was then used in a one-step quantitative real-time PCR reaction, using components of the RNA UltraSense™ One-Step Kit (Life Technologies) together with Applied Biosystems TaqMan® primer-probes for cMYC and Cyclophilin. Real-time PCR plates were run on a ViiA™7 real time PCR machine (Applied Biosystems), data was analyzed, normalizing the Ct values for cMYC to an internal control, prior to determining the fold expression of each sample, relative to the control.

| Compound | IC50 [1] [nM] | IC50 [2] [nM] | IC50 [3] [nM] | Cell Proliferation activity [1] |
| --- | --- | --- | --- | --- |
| Cc1noc(C)c1-c1cc(-c2c(C)noc2C)c2nn[nH]c2c1 [Example Compound 95, 4,4′-(1H-benzo[d][1,2,3]triazole-4,6-diyl)bis(3,5-dimethylisoxazole)] |  | 300 to 3000 |  | Not active |
| Cc1noc(C)c1-c1cc(-c2ccc[nH]c2=O)c2nc[nH]c2c1 [Example Compound 56, 3-(6-(3,5-dimethyl-isoxazol-4-yl)-1H-benzo[d]imidazol-4-yl)pyridin-2(1H)-one] |  | 300 to 3000 |  | Not active |
| Cc1noc(C)c1-c1cc(-c2c(C)nn(C)c2C)c2nc(NC3CCN(C)CC3)[nH]c2c1 [Example Compound 185, 6-(3,5-dimethyl-isoxazol-4-yl)-N-(1-methyl-piperidin-4-yl)-4-(1,3,5-trimethyl-1H-pyrazol-4-yl)-1H-benzo[d] imidazol-2-amine] | 300 to 3000 | ≤ 300 | 300 to 3000 |  |
| Cc1noc(C)c1-c1cc(-c2c(C)nn(C)c2C)c2nc(NC3CCOCC3)[nH]c2c1 [Example Compound 190, 6-(3,5-dimethyl-isoxazol-4-yl)-N-(tetrahydro-2H-pyran-4-yl)-4-(1,3,5-trimethyl-1H-pyrazol-4-yl)-1H-benzo[d] imidazol-2-amine] | ≤ 300 | ≤ 300 | 300 to 3000 |  |
| Cc1noc(C)c1-c1cc(-c2cnn(C)c2)c2nc[nH]c2c1 [Example Compound 29, 3,5-dimethyl-4-(4-(1-methyl-1H-pyrazol-4-yl)-1H-benzo[d]imidazol-6-yl)isoxazole] | 3000 to 30000 | ≤ 300 | 300 to 3000 |  |
| Cc1ccc(C(N)=O)cc1-c1cc(-c2c(C)noc2C)cc2[nH]c(NC3CCOCC3)nc12 [Example Compound 200, 3-(6-(3,5-dimethyl-isoxazol-4-yl)-2-((tetrahydro-2H-pyran-4-yl)amino)-1H-benzo[d]imidazol-4-yl)-4-methyl benzamide] | ≤ 300 | ≤ 300 | ≤ 300 |  |
| Cc1noc(C)c1-c1cc(-c2c(C)nn(C)c2C)c2nc(N3CCOCC3)[nH]c2c1 [Example Compound 184, 4-(6-(3,5-dimethyl-isoxazol-4-yl)-4-(1,3,5-trimethyl-1H-pyrazol-4-yl)-1H-benzo[d]imidazol-2-yl)morpholine] | ≤ 300 | ≤ 300 | ≤ 300 |  |
| Cc1ccc(C(N)=O)cc1-c1cc(-c2c(C)noc2C)cc2[nH]c(N3CCOCC3)nc12 [Example Compound 197, 3-(6-(3,5-dimethyl-isoxazol-4-yl)-2-morpholino-1H-benzo[d]imidazol-4-yl)-4-methyl benzamide] | 300 to 3000 | ≤ 300 | 300 to 3000 |  |
| CSc1nc2c(-c3c(C)nn(C)c3C)cc(-c3c(C)noc3C)cc2[nH]1 [Example Compound 187, 3,5-dimethyl-4-(2-(methylthio)-4-(1,3,5-trimethyl-1H-pyrazol-4-yl)-1H-benzo[d]imidazol-6-yl)isoxazole] | ≤ 300 | ≤ 300 | ≤ 300 |  |
| Cc1ccc(C#N)cc1-c1cc(-c2c(C)noc2C)cc2[nH]c(N3CCOCC3)nc12 [Example Compound 193, 3-(6-(3,5-dimethyl-isoxazol-4-yl)-2-morpholino-1H-benzo[d]imidazol-4-yl)-4-methyl benzonitrile] |  | ≤ 300 |  |  |
| Cc1noc(C)c1-c1cc(-c2c(C)nn(C)c2C)c2nc(N3CCC3)[nH]c2c1 [Example Compound 217] |  | ≤ 300 |  |  |
| Cc1noc(C)c1-c1cc(-c2c(C)noc2C)c2nc(NCc3cccnc3)[nH]c2c1 [Example Compound 65, 4,6-bis(3,5-dimethyl-isoxazol-4-yl)-N-(pyridin-3-ylmethyl)-1H-benzo[d] imidazol-2-amine] |  | ≤ 300 |  |  |
| CSc1nc2c(-c3c(C)nn(C)c3C)cc(-c3c(C)noc3C)cc2n1C [Example Compound 188, 3,5-dimethyl-4-(1-methyl-2-(methylthio)-4-(1,3,5-trimethyl-1H-pyrazol-4-yl)-1H-benzo[d]imidazol-6-yl)isoxazole] | 300 to 3000 | 300 to 3000 | 300 to 3000 |  |

More lines, main results first:

| IC50 [1] [nM] | IC50 [2] [nM] | IC50 [3] [nM] | Compound | Cell Proliferation activity [1] |
| --- | --- | --- | --- | --- |
| 300 to 3000 | ≤ 300 |  | Cc1noc(C)c1-c1cc(-c2c(C)noc2C)c2nc(NC3CCN(C)CC3)[nH]c2c1 [Example Compound 232, 4,6-bis(3,5-dimethyl-isoxazol-4-yl)-N-(1-methyl-piperidin-4-yl)-1H-benzo[d] imidazol-2-amine] |  |
| 300 to 3000 | ≤ 300 | ≤ 300 | Cc1nc2c(-c3cccc(C(N)=O)c3C)cc(-c3c(C)noc3C)cc2[nH]1 [Example Compound 126, 3-(6-(3,5-dimethylisoxazol-4-yl)-2-methyl-1H-benzo[d]imidazol-4-yl)-2-methylbenzamide] |  |
| 300 to 3000 | ≤ 300 | ≤ 300 | CCNc1nc2c(-c3cccnc3C)cc(-c3c(C)noc3C)cc2[nH]1 [Example Compound 100, 6-(3,5-dimethylisoxazol-4-yl)-N-ethyl-4-(2-methylpyridin-3-yl)-1H-benzo[d]imidazol-2-amine] |  |
| 300 to 3000 | ≤ 300 | 300 to 3000 | Cc1nc2c(-c3cncc(F)c3C)cc(-c3c(C)noc3C)cc2[nH]1 [Example Compound 125, 4-(4-(5-fluoro-4-methyl-pyridin-3-yl)-2-methyl-1H-benzo[d]imidazol-6-yl)-3,5-dimethyl isoxazole] |  |
| ≤ 300 | ≤ 300 | ≤ 300 | Cc1ccc(C#N)cc1-c1cc(-c2c(C)noc2C)cc2[nH]c(NC3CCOCC3)nc12 [Example Compound 198, 3-(6-(3,5-dimethyl-isoxazol-4-yl)-2-((tetrahydro-2H-pyran-4-yl)amino)-1H-benzo[d]imidazol-4-yl)-4-methyl benzonitrile] |  |
| 300 to 3000 | ≤ 300 | 300 to 3000 | Cc1nc2c(-c3ccc4c(c3)OCO4)cc(-c3c(C)noc3C)cc2[nH]1 [Example Compound 103, 4-(4-(benzo[d] [1,3]dioxol-5-yl)-2-methyl-1H-benzo[d]imidazol-6-yl)-3,5-dimethyl isoxazole] |  |
| 300 to 3000 | ≤ 300 | 300 to 3000 | Cc1noc(C)c1-c1cc(NCc2ccccn2)c2nc[nH]c2c1 [Example Compound 47, 6-(3,5-dimethyl-isoxazol-4-yl)-N-(pyridin-2-ylmethyl)-1H-benzo[d] imidazol-4-amine] |  |
| 300 to 3000 | ≤ 300 | 300 to 3000 | Cc1noc(C)c1CNc1cc(-c2c(C)noc2C)cc2[nH]cnc12 [Example Compound 39, 6-(3,5-dimethyl-isoxazol-4-yl)-N-((3,5-dimethyl-isoxazol-4-yl)methyl)-1H-benzo[d] imidazol-4-amine] |  |
| 3000 to 30000 | ≤ 300 |  | Cc1noc(C)c1-c1cc(Nc2ccc(Cl)cc2)c2nc[nH]c2c1 [Example Compound 40, N-(4-chlorophenyl)-6-(3,5-dimethyl-isoxazol-4-yl)-1H-benzo[d] imidazol-4-amine] |  |
